# Assays:
# in vitro = conditions: human
# L. pneumophila biofilm [1] = type: cell-based, Legionella pneumophila 155; conditions: 0.1 mM polyamino-phenolic ligand, 3-day-old biofilm treated 3 days, tap water, 37°C
# [2] = system: L. pneumophila/E. coli biofilm; type: cell-based, Legionella pneumophila 155 / Escherichia coli; conditions: 0.1 mM polyamino-phenolic ligand, 3-day-old biofilm treated 3 days
# L. pneumophila biofilm [3] = type: cell-based, Legionella pneumophila 155; conditions: 0.1 mM polyamino-phenolic ligand added at inoculum, 3-day contact time
# planktonic A. hydrophila = type: cell-based, Aeromonas hydrophila
# [4] = system: L. pneumophila/A. hydrophila biofilm; type: cell-based, Legionella pneumophila 155 / Aeromonas hydrophila; conditions: 0.1 mM polyamino-phenolic ligand added at inoculum, 3-day contact time
# planktonic K. pneumoniae = type: cell-based, Klebsiella pneumoniae
# planktonic E. coli = type: cell-based, Escherichia coli
# [5] = system: planktonic L. pneumophila; type: cell-based, Legionella pneumophila; conditions: 0.1 mM polyamino-phenolic ligand, 24 h, PBS, 37°C
# planktonic P. aeruginosa = type: cell-based, Pseudomonas aeruginosa
# [6] = system: L. pneumophila/E. coli biofilm; type: cell-based, Legionella pneumophila 155 / Escherichia coli; conditions: 0.1 mM polyamino-phenolic ligand added at inoculum, 3-day contact time
# [7] = system: L. pneumophila/K. pneumonia biofilm; type: cell-based, Legionella pneumophila 155 / Klebsiella pneumoniae; conditions: 0.1 mM polyamino-phenolic ligand, 3-day-old biofilm treated 3 days
# [8] = system: L. pneumophila/P. aeruginosa biofilm; type: cell-based, Legionella pneumophila 155 / Pseudomonas aeruginosa; conditions: 0.1 mM polyamino-phenolic ligand added at inoculum, 3-day contact time
# [9] = system: L. pneumophila/K. pneumoniae biofilm; type: cell-based, Legionella pneumophila 155 / Klebsiella pneumoniae; conditions: 0.1 mM polyamino-phenolic ligand added at inoculum, 3-day contact time
# [10] = system: L. pneumophila/A. hydrophila biofilm; type: cell-based, Legionella pneumophila 155 / Aeromonas hydrophila; conditions: 0.1 mM polyamino-phenolic ligand, 3-day-old biofilm treated 3 days
# [11] = system: five-species biofilm (L. pneumophila/P. aeruginosa/A. hydrophila/E. coli/K. pneumoniae); type: cell-based; conditions: 0.1 mM polyamino-phenolic ligand added at inoculum, 3-day contact time
SMILES,viability (in vitro) [%],biofilm reduction (degradation) (L. pneumophila biofilm [1]) [%],effect on number of viable planktonic cells (planktonic A. hydrophila),effect on number of viable planktonic cells (planktonic K. pneumoniae),effect on number of viable planktonic cells (planktonic E. coli),effect on number of viable planktonic cells [5],effect on number of viable planktonic cells (planktonic P. aeruginosa),further results
"NCCN(CCN)Cc1cccc(-c2cccc(CN(CCN)CCN)c2O)c1O [Bfden, 3,3′-bis(N,N-bis(2-aminoethyl)aminomethyl)-2,2′-dihydroxybiphenyl]",97,–,–,–,–,–,–,–
"NCCNCCNCc1cc(-c2ccc(O)c(CNCCNCCN)c2)ccc1O [Bisom, 3,3′-bis(N-(N-(2-aminoethyl)-2-aminoethyl)aminomethyl)-4,4′-dihydroxybiphenyl]",72,–,–,–,–,–,–,–
"NCCN(CCN)Cc1cc(-c2ccc(O)c(CN(CCN)CCN)c2)ccc1O [Dimo, 3,3′-bis(N,N-bis(2-aminoethyl)aminomethyl)-4,4′-dihydroxybiphenyl]",58,27,–,–,–,–,–,–
"Oc1c2cccc1CNCCN(CCNCCCNCCNCCCNCCN1CCNCc3cccc(c3O)CNCC1)CCNC2 [Double Macrophen, 1,16-bis(3,6,9-triaza-15-hydroxybicyclo(9.3.1)pentadeca-11,13,1^15-trien-6-yl)-3,7,10,14-tetraazahexadecane]",95,32,did not reduce the number of viable cells,did not reduce the number of viable cells,did not reduce the number of viable cells,did not reduce the number of viable cells,did not reduce the number of viable cells,biofilm reduction (degradation) [2]: 39%; biofilm formation inhibition (L. pneumophila biofilm [3]): 48%; biofilm formation inhibition [4]: 34%; biofilm formation inhibition [6]: 42%
"NCCN1CCNCc2cccc(c2O)CNCC1 [Macrophen, 2-(3,6,9-triaza-15-hydroxybicyclo(9.3.1)pentadeca-11,13,1^15-trien-6-yl)ethylamine]",–,27,did not reduce the number of viable cells,did not reduce the number of viable cells,did not reduce the number of viable cells,did not reduce the number of viable cells,did not reduce the number of viable cells,biofilm reduction (degradation) [7]: 33%; biofilm formation inhibition [8]: 26%; biofilm formation inhibition [9]: 24%; biofilm reduction (degradation) [10]: 33%; biofilm formation inhibition [11]: 27%

# From article PMC4783402 (Frontiers in Microbiology, 2016)
